From PubChem BioAssay AID2060899 (Molecular Pharmacology Branch, DTP, NCI, 2025)

Test system: 565726-208-R1-J5-PDC complex spheroids, growth inhibition
Test: Anticancer human tumor 565726-208-R1-J5-PDC patient-derived pancreatic adenocarcinoma cell line growth inhibition [RAS]
Settings: for IC50: curve of first compound; for viability, T/C: stronger effect = lower value; active = viability on the fitted dose curve at most 10% of control; inactive = the rest
How it was run: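 Tumour cells grown as complex spheroids with HUVEC endothelial cells and mesenchymal stem cells, treated with RAS pathway inhibitor combinations. Each agent spans half-log steps from near clinical Cmax, or 10 microM where Cmax is unknown.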

[1] = second compound 0.00316 µM, first compound 0.0316 µM
[2] = second compound 0.00316 µM, first compound 0.1 µM
[3] = second compound 0.00316 µM, first compound 0.316 µM
[4] = second compound 0.00316 µM, first compound 1 µM
[5] = second compound 0.00316 µM, first compound 3.16 µM
[6] = second compound 0.00316 µM, first compound 10 µM
[7] = second compound 0.01 µM, first compound 0.0316 µM
[8] = second compound 0.01 µM, first compound 0.1 µM
[9] = second compound 0.01 µM, first compound 0.316 µM
[10] = second compound 0.01 µM, first compound 1 µM
[11] = second compound 0.01 µM, first compound 3.16 µM
[12] = second compound 0.01 µM, first compound 10 µM
[13] = second compound 0.0316 µM, first compound 0.0316 µM
[14] = second compound 0.0316 µM, first compound 0.1 µM
[15] = second compound 0.0316 µM, first compound 0.316 µM
[16] = second compound 0.0316 µM, first compound 1 µM
[17] = second compound 0.0316 µM, first compound 3.16 µM
[18] = second compound 0.0316 µM, first compound 10 µM
[19] = second compound 0.1 µM, first compound 0.0316 µM
[20] = second compound 0.1 µM, first compound 0.1 µM
[21] = second compound 0.1 µM, first compound 0.316 µM
[22] = second compound 0.1 µM, first compound 1 µM
[23] = second compound 0.1 µM, first compound 3.16 µM
[24] = second compound 0.1 µM, first compound 10 µM
[25] = second compound 0.316 µM, first compound 0.0316 µM
[26] = second compound 0.316 µM, first compound 0.1 µM
[27] = second compound 0.316 µM, first compound 0.316 µM
[28] = second compound 0.316 µM, first compound 1 µM
[29] = second compound 0.316 µM, first compound 3.16 µM
[30] = second compound 0.316 µM, first compound 10 µM
[31] = second compound 1 µM, first compound 0.0316 µM
[32] = second compound 1 µM, first compound 0.1 µM
[33] = second compound 1 µM, first compound 0.316 µM
[34] = second compound 1 µM, first compound 1 µM
[35] = second compound 1 µM, first compound 3.16 µM
[36] = second compound 1 µM, first compound 10 µM
[37] = second compound 0.00316 µM, first compound 0.00316 µM
[38] = second compound 0.00316 µM, first compound 0.01 µM
[39] = second compound 0.01 µM, first compound 0.00316 µM
[40] = second compound 0.01 µM, first compound 0.01 µM
[41] = second compound 0.0316 µM, first compound 0.00316 µM
[42] = second compound 0.0316 µM, first compound 0.01 µM
[43] = second compound 0.1 µM, first compound 0.00316 µM
[44] = second compound 0.1 µM, first compound 0.01 µM
[45] = second compound 0.316 µM, first compound 0.00316 µM
[46] = second compound 0.316 µM, first compound 0.01 µM
[47] = second compound 1 µM, first compound 0.00316 µM
[48] = second compound 1 µM, first compound 0.01 µM
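Also: spheroids exposed to compounds for seven days before readout.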
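For viability, T/C in this document: 100% = DMSO vehicle control viability.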

CC(C)NCC(C(=O)N1CCN(c2ncnc3c2C(C)CC3O)CC1)c1ccc(Cl)cc1 (stereo not given) + C=CC(=O)N1CCN(c2nc(OCC3CCCN3C)nc3c(F)c(-c4nc(N)cc(C)c4C(F)(F)F)c(Cl)cc23)C(C)C1
> 10 µM: IC50 (second compound 0.00316 µM) | IC50 (second compound 0.01 µM) | IC50 (second compound 0.0316 µM) | IC50 (second compound 0.1 µM) | IC50 (second compound 0.316 µM) | IC50 (second compound 1 µM)
inactive: viability, T/C [1] 90.5% | viability, T/C [2] 152% | viability, T/C [3] 89% | viability, T/C [4] 91% | viability, T/C [5] 93.3% | viability, T/C [6] 110% | viability, T/C [7] 133% | viability, T/C [8] 153% | viability, T/C [9] 91% | viability, T/C [10] 78.3% | viability, T/C [11] 104% | viability, T/C [12] 127% | viability, T/C [13] 125% | viability, T/C [14] 160% | viability, T/C [15] 90.2% | viability, T/C [16] 89.8% | viability, T/C [17] 93.5% | viability, T/C [18] 125% | viability, T/C [19] 176% | viability, T/C [20] 154% | viability, T/C [21] 93.1% | viability, T/C [22] 85.4% | viability, T/C [23] 80.6% | viability, T/C [24] 120% | viability, T/C [25] 147% | viability, T/C [26] 153% | viability, T/C [27] 88.5% | viability, T/C [28] 96.6% | viability, T/C [29] 73.4% | viability, T/C [30] 118% | viability, T/C [31] 175% | viability, T/C [32] 155% | viability, T/C [33] 130% | viability, T/C [34] 95.1% | viability, T/C [35] 80.7% | viability, T/C [36] 95.9%

CC(C)n1nc(-c2ccc3oc(N)nc3c2)c2c(N)ncnc21 + C=CC(=O)N1CCN(c2nc(OCC3CCCN3C)nc3c(F)c(-c4nc(N)cc(C)c4C(F)(F)F)c(Cl)cc23)C(C)C1
0.0252 µM: IC50 (second compound 0.01 µM)
inactive: viability, T/C (second compound 0.00316 µM, first compound 0.000316 µM) 93% | viability, T/C (second compound 0.00316 µM, first compound 0.001 µM) 138% | viability, T/C [37] 70.2% | viability, T/C [38] 62.3% | viability, T/C [1] 57.1% | viability, T/C [2] 42% | viability, T/C (second compound 0.01 µM, first compound 0.000316 µM) 93.5% | viability, T/C (second compound 0.01 µM, first compound 0.001 µM) 132% | viability, T/C [39] 96.7% | viability, T/C [40] 68.2% | viability, T/C [7] 48.2% | viability, T/C [8] 39.5% | viability, T/C (second compound 0.0316 µM, first compound 0.000316 µM) 99.8% | viability, T/C (second compound 0.0316 µM, first compound 0.001 µM) 148% | viability, T/C [41] 81.7% | viability, T/C [42] 78.3% | viability, T/C [13] 55.5% | viability, T/C [14] 41.1% | viability, T/C (second compound 0.1 µM, first compound 0.000316 µM) 107% | viability, T/C (second compound 0.1 µM, first compound 0.001 µM) 121% | viability, T/C [43] 86.5% | viability, T/C [44] 70.8% | viability, T/C [19] 65.7% | viability, T/C [20] 40.3% | viability, T/C (second compound 0.316 µM, first compound 0.000316 µM) 87.1% | viability, T/C (second compound 0.316 µM, first compound 0.001 µM) 126% | viability, T/C [45] 70.7% | viability, T/C [46] 68.7% | viability, T/C [25] 49.7% | viability, T/C [26] 46% | viability, T/C (second compound 1 µM, first compound 0.000316 µM) 79.9% | viability, T/C (second compound 1 µM, first compound 0.001 µM) 96.3% | viability, T/C [47] 97.7% | viability, T/C [48] 65.6% | viability, T/C [31] 65% | viability, T/C [32] 45.2%
0.0449 µM: IC50 (second compound 0.0316 µM)
0.0591 µM: IC50 (second compound 0.1 µM)
0.1 µM: IC50 (second compound 0.00316 µM) | IC50 (second compound 0.316 µM)
0.0809 µM: IC50 (second compound 1 µM)

CC(Nc1ccc2c(c1)OCCn1cc(N3C(=O)OCC3C(F)F)nc1-2)C(N)=O (stereo not given) + C=CC(=O)N1CCN(c2nc(OCC3CCCN3C)nc3c(F)c(-c4nc(N)cc(C)c4C(F)(F)F)c(Cl)cc23)C(C)C1
> 10 µM: IC50 (second compound 0.00316 µM) | IC50 (second compound 0.01 µM) | IC50 (second compound 0.0316 µM) | IC50 (second compound 0.1 µM) | IC50 (second compound 0.316 µM) | IC50 (second compound 1 µM)
inactive: viability, T/C [1] 87.9% | viability, T/C [2] 124% | viability, T/C [3] 93.7% | viability, T/C [4] 67.5% | viability, T/C [5] 92.8% | viability, T/C [6] 86.4% | viability, T/C [7] 95.4% | viability, T/C [8] 139% | viability, T/C [9] 79.8% | viability, T/C [10] 66% | viability, T/C [11] 100% | viability, T/C [12] 89% | viability, T/C [13] 121% | viability, T/C [14] 128% | viability, T/C [15] 78.6% | viability, T/C [16] 67.9% | viability, T/C [17] 104% | viability, T/C [18] 96.2% | viability, T/C [19] 149% | viability, T/C [20] 130% | viability, T/C [21] 69.4% | viability, T/C [22] 66.8% | viability, T/C [23] 62.7% | viability, T/C [24] 85.1% | viability, T/C [25] 141% | viability, T/C [26] 139% | viability, T/C [27] 86.3% | viability, T/C [28] 79.8% | viability, T/C [29] 66.3% | viability, T/C [30] 102% | viability, T/C [31] 126% | viability, T/C [32] 147% | viability, T/C [33] 90.2% | viability, T/C [34] 64.9% | viability, T/C [35] 85.3% | viability, T/C [36] 89.8%

CCN1CCN(Cc2ccc(Nc3ncc(F)c(-c4cc(F)c5nc(C)n(C(C)C)c5c4)n3)nc2)CC1 + C=CC(=O)N1CCN(c2nc(OCC3CCCN3C)nc3c(F)c(-c4nc(N)cc(C)c4C(F)(F)F)c(Cl)cc23)C(C)C1
inactive: viability, T/C [37] 92.8% | viability, T/C [38] 137% | viability, T/C [1] 93.5% | viability, T/C [2] 72.2% | viability, T/C [3] 82.8% | viability, T/C [4] 119% | viability, T/C [39] 101% | viability, T/C [40] 134% | viability, T/C [7] 98.2% | viability, T/C [8] 63% | viability, T/C [9] 79.2% | viability, T/C [10] 119% | viability, T/C [41] 163% | viability, T/C [42] 144% | viability, T/C [13] 109% | viability, T/C [14] 77.1% | viability, T/C [15] 61% | viability, T/C [16] 103% | viability, T/C [43] 135% | viability, T/C [44] 124% | viability, T/C [19] 83.1% | viability, T/C [20] 87.4% | viability, T/C [21] 61.1% | viability, T/C [22] 118% | viability, T/C [45] 141% | viability, T/C [46] 136% | viability, T/C [25] 85% | viability, T/C [26] 100% | viability, T/C [27] 58.8% | viability, T/C [28] 116% | viability, T/C [47] 117% | viability, T/C [48] 129% | viability, T/C [31] 89.5% | viability, T/C [32] 66% | viability, T/C [33] 78.2% | viability, T/C [34] 110%
> 1 µM: IC50 (second compound 0.00316 µM) | IC50 (second compound 0.01 µM) | IC50 (second compound 0.0316 µM) | IC50 (second compound 0.1 µM) | IC50 (second compound 0.316 µM) | IC50 (second compound 1 µM)

C[C@@H](NC(=O)c1ncnc(N)c1Cl)c1ncc(C(=O)Nc2cc(C(F)(F)F)c(Cl)cn2)s1 + C=CC(=O)N1CCN(c2nc(OCC3CCCN3C)nc3c(F)c(-c4nc(N)cc(C)c4C(F)(F)F)c(Cl)cc23)C(C)C1
> 10 µM: IC50 (second compound 0.00316 µM) | IC50 (second compound 0.01 µM) | IC50 (second compound 0.0316 µM) | IC50 (second compound 0.1 µM) | IC50 (second compound 0.316 µM) | IC50 (second compound 1 µM)
inactive: viability, T/C [1] 119% | viability, T/C [2] 151% | viability, T/C [3] 88.8% | viability, T/C [4] 98.3% | viability, T/C [5] 77.7% | viability, T/C [6] 78.3% | viability, T/C [7] 95.5% | viability, T/C [8] 140% | viability, T/C [9] 94.5% | viability, T/C [10] 89.1% | viability, T/C [11] 91.9% | viability, T/C [12] 67.8% | viability, T/C [13] 115% | viability, T/C [14] 129% | viability, T/C [15] 92.8% | viability, T/C [16] 99.3% | viability, T/C [17] 88.2% | viability, T/C [18] 70.9% | viability, T/C [19] 120% | viability, T/C [20] 123% | viability, T/C [21] 102% | viability, T/C [22] 97.2% | viability, T/C [23] 98.7% | viability, T/C [24] 83.4% | viability, T/C [25] 86.7% | viability, T/C [26] 128% | viability, T/C [27] 104% | viability, T/C [28] 101% | viability, T/C [29] 106% | viability, T/C [30] 76.9% | viability, T/C [31] 89.1% | viability, T/C [32] 120% | viability, T/C [33] 108% | viability, T/C [34] 114% | viability, T/C [35] 86.4% | viability, T/C [36] 74.6%
